Results reported in US5023364A, “Phenoxyalkylcarboxylic acid derivatives and process for their preparation” (Kyorin Pharmaceutical Co., Ltd., priority 1987, dated 1991).

Test system: leukotriene D4 -induced bronchoconstriction
Experiment: Inhibition of bronchoconstriction in guinea pigs (leukotriene D4-induced, modified Konzett-Rossler method)
Assay type: in vivo, Male Hartley guinea pig
Settings: p.o., 2 hours before leukotriene D4 challenge (3 μg/kg, i.v.)
Method: Inhibition of bronchoconstriction in guinea pigs
Male Hartley guinea pig weighing about 450 g was anesthetized with sodium pentobarbital (30 mg/kg,i.p.), and the changes in transpulmonary pressure was measured by modifying the method of Konzett-Rossler (J. Harvey, et al., J. Pharmacol. Method. 9, 147-155, 1983) under an artificial ventilation. Bronchoconstrictor response was induced by bolus injection of leukotriene D4 (3 μg/kg,i.v.) from jugular vein. Animal was treated with indomethacin (10 mg/kg,i.v.) and propranolol (1 mg/kg,i.v.) before leukotriene D4 challenge. Test compounds suspended in 5% Gum Arabic solution were administered orally 2 hours before leukotriene D4 challenge.

| Structure (SMILES) | Inhibition (%) (50 mg/kg) | Inhibition (%) (12.5 mg/kg) | Inhibition (%) (1.5 mg/kg) | Inhibition (%) (6.25 mg/kg) |
| --- | --- | --- | --- | --- |
| CCCc1c(OCCCCOc2ccc(C(C)=O)c(OCCCC(=O)O)c2CCC)ccc(C(C)=O)c1O [Example 8, 4-[6-acetyl-3-[4-(4-acetyl-3-hydroxy-2-propylphenoxy)butoxy]-2-propylphenoxy]butanoic acid] | 83.1% | – | – | – |
| CCCc1c(OCCCOc2ccc(C(C)=O)c(OCCCCC(=O)O)c2CCC)ccc(C(C)=O)c1O [Example 7, 5-[6-acetyl-3-[3(4-acetyl-3-hydroxy-2-propylphenoxy)propoxy]-2-propylphenoxy]pentanoic acid] | 94.8% | 45.2% | – | – |
| CCCc1c(OCCCOc2ccc(C(C)=O)c(OCC(=O)O)c2CCC)ccc(C(C)=O)c1O [Ref. 1, [6-acetyl-3-[3-(4-acetyl3-hydroxy-2-propylphenoxy)propoxy]-2-propylphenoxy]acetic acid, reference compound] | 56.1% | -12.1% | – | – |
| CCCc1c(OCCOc2ccc(C(C)=O)c(OCCCC(=O)O)c2CCC)ccc(C(C)=O)c1O [Example 6, 4-[6-acetyl-3-[2-(4-acetyl-3-hydroxy-2-propylphenoxy)-ethoxy]-2-propylphenoxy]butanoic acid] | 86.6% | 28.6% | – | – |
| CCCc1c(OCCCOc2ccc(C(C)=O)c(OCCCC(=O)O)c2CCC)ccc(C(C)=O)c1O [Example 5, 4-[6-Acetyl-3-[3-(4-acetyl-3-hydroxy-2-propylphenoxy)propoxy]-2-propylphenoxy]butanoic acid] | 82.7% | 59.0% | 27.4% | 41.7% |
| CCCc1c(OCCCCCOc2c(C(C)=O)ccc(OCC(=O)O)c2CCC)ccc(C(C)=O)c1O [Ref. 2, [4Acetyl-3-[5-(4-acetyl-3-hydroxy-2-propylphenoxy)-pentyloxy]-2-propylpheoxy]acetic acid, reference compound] | 16.9% | – | – | – |
